Test results: patent publication US4264736A, “Antibiotic 890A10” (Merck & Co., Inc., priority 1979, dated 1981)

Columns and labels:
[1] = tested on: Streptococcus faecium MB No. 2820; test: Antibiotic spectrum profile, agar zone of inhibition; format: cell-based; details: Enterococcus faecium, MBNO.2820, 0.015 ml of 9.5 μg/ml aqueous solution, 25° C., read-out: Inhib. Zone Diam.
[2] = tested on: Klebsiella pneumoniae MB No. 1264; test: as above; format: cell-based; details: MBNO.1264, 0.015 ml of 9.5 μg/ml aqueous solution, 25° C., read-out: Inhib. Zone Diam.
[3] = tested on: Vibrio percolans MB No. 2566 (res. ceph C); test: as above; format: cell-based; details: Comamonas terrigena, read-out: Inhib. Zone Diam.
[4] = tested on: Staphylococcus aureus MB No. 698; test: as above; format: cell-based; details: MBNO.698, 0.015 ml of 9.5 μg/ml aqueous solution, 25° C., read-out: Inhib. Zone Diam.
[5] = tested on: Salmonella gallinarum MB No. 1287; test: as above; format: cell-based; details: Salmonella enterica, 0.015 ml of 9.5 μg/ml aqueous solution, 25° C., read-out: Inhib. Zone Diam.
[6] = tested on: Sarcina lutea ATCC 9341; test: as above; format: cell-based; details: Micrococcus luteus, ATCC9341, 0.015 ml of 9.5 μg/ml aqueous solution, 25° C., read-out: Inhib. Zone Diam.
[7] = tested on: Proteus mirabilis MB No. 3126; test: as above; format: cell-based; details: MBNO.3126, 0.015 ml of 9.5 μg/ml aqueous solution, 25° C., read-out: Inhib. Zone Diam.
[8] = tested on: Streptococcus faecalis MB No. 753; test: as above; format: cell-based; details: Enterococcus faecalis, MBNO.753, 0.015 ml of 9.5 μg/ml aqueous solution, 25° C., read-out: Inhib. Zone Diam.
[9] = tested on: Proteus vulgaris MB No. 2112 (episome); test: as above; format: cell-based; details: read-out: Inhib. Zone Diam.
[10] = tested on: Bacillus subtilis ATCC 6633; test: as above; format: cell-based; details: ATCC6633, 0.015 ml of 9.5 μg/ml aqueous solution, 25° C., read-out: Inhib. Zone Diam.
[11] = tested on: Protcus vulgaris MB No. 1012; test: as above; format: cell-based; details: 0.015 ml of 9.5 μg/ml aqueous solution, 25° C., read-out: Inhib. Zone Diam.
[12] = tested on: Brucella bronchiseptica ATCC 4617; test: microbe, parasite or virus in culture; format: cell-based; details: Bordetella bronchiseptica, ATCC4617, read-out: Inhib. Zone Diam.
[13] = tested on: Pseudomonas aeruginosa MB No. 2824; test: Antibiotic spectrum profile, agar zone of inhibition; format: cell-based; details: MBNO.2824, 0.015 ml of 9.5 μg/ml aqueous solution, 25° C., read-out: Inhib. Zone Diam.
[14] = tested on: Vibrio percolans ATCC 8461; test: Antibiotic spectrum profile, agar zone of inhibition, with penicillinase; format: cell-based; details: Comamonas terrigena, ATCC8461; 0.015 ml of 9.5 μg/ml aqueous solution; 25° C.; Vibrio Percolans ATCC 8461 + 2×10^5 u/ml penicillinase; read-out: Inhib. Zone Diam.
[15] = tested on: Corynebacterium psedodiph. ATCC 9742; test: Antibiotic spectrum profile, agar zone of inhibition; format: cell-based; details: ATCC9742, 0.015 ml of 9.5 μg/ml aqueous solution, 25° C., read-out: Inhib. Zone Diam.
[16] = Electrophoresis at neutral pH; format: physicochemical; details: 50 volts/cm, 0.03 M potassium phosphate buffer, pH 7.1, 30 minutes
Method: Antibiotic 890A10 is an acidic substance which migrates toward the positive pole on electrophoresis at neutral pH. At a gradient of 50 volts/cm. in 0.03 M potassium phosphate buffer, pH 7.1, the antibiotic moves 8.0 cm. in 30 minutes, compared with a movement of 4.0 cm. for 890A1. The disodium salt is a white or slightly yellow powder as lyophilized from aqueous solution. Under acidic conditions in aqueous solution, the antibiotic is unstable, and the free acid form has not been isolated.

[17] = tested on: Xanthomonas vesicatoria MB No. 815; test: Antibiotic spectrum profile, agar zone of inhibition; format: cell-based; details: MBNO.815, 0.015 ml of 9.5 μg/ml aqueous solution, 25° C., read-out: Inhib. Zone Diam.
[18] = tested on: bacterial β-lactamases; test: Inhibition of bacterial β-lactamases (statement); format: biochemical
[19] = tested on: Staphylococcus aureus ATCC 6538 P; test: Antibiotic spectrum profile, agar zone of inhibition; format: cell-based; details: ATCC6538, 0.015 ml of 9.5 μg/ml aqueous solution, 25° C., read-out: Inhib. Zone Diam.
[20] = tested on: Proteus vulgaris ATCC 21100; test: as above; format: cell-based; details: ATCC21100, 0.015 ml of 9.5 μg/ml aqueous solution, 25° C., read-out: Inhib. Zone Diam.
[21] = tested on: Vibrio percolans ATCC 8461; test: as above; format: cell-based; details: Comamonas terrigena, ATCC8461, 0.015 ml of 9.5 μg/ml aqueous solution, 25° C., read-out: Inhib. Zone Diam.
[22] = tested on: Pseudomonas stutzeri ATCC 11607; test: as above; format: cell-based; details: Stutzerimonas stutzeri, ATCC11607, 0.015 ml of 9.5 μg/ml aqueous solution, 25° C., read-out: Inhib. Zone Diam.
[23] = tested on: various gram-positive and gram-negative bacteria; test: Antibacterial activity (statement); format: cell-based
[24] = Stability in aqueous solution under acidic conditions; format: physicochemical; details: free acid form not isolated
[25] = tested on: Escherichia coli MB No. 1418; test: Antibiotic spectrum profile, agar zone of inhibition; format: cell-based; details: MBNO.1418, 0.015 ml of 9.5 μg/ml aqueous solution, 25° C., read-out: Inhib. Zone Diam.
[26] = tested on: Pseudomonas aeruginosa MB No. 979; test: as above; format: cell-based; details: MBNO.979, 0.015 ml of 9.5 μg/ml aqueous solution, 25° C., read-out: Inhib. Zone Diam.

CC(=O)NCCSC1=C(C(=O)O)N2C(=O)C(C(C)OS(=O)(=O)O)C2C1 (centres unmarked) [Antibiotic 890A10]
zone of inhibition at 9.5 µg/mL [1]: 0 mm
zone of inhibition at 9.5 µg/mL [2]: 19 mm
zone of inhibition at 9.5 µg/mL [3]: 22 mm
zone of inhibition at 9.5 µg/mL [4]: 23 mm
zone of inhibition at 9.5 µg/mL [5]: 28 mm
zone of inhibition at 9.5 µg/mL [6]: 33 mm
zone of inhibition at 9.5 µg/mL [7]: 29 mm
zone of inhibition at 9.5 µg/mL [8]: 0 mm
zone of inhibition at 9.5 µg/mL [9]: 30 mm
zone of inhibition at 9.5 µg/mL [10]: 30 mm
zone of inhibition at 9.5 µg/mL [11]: 19 mm
zone of inhibition at 9.5 µg/mL [12]: 0 mm
zone of inhibition at 9.5 µg/mL [13]: 0 mm
zone of inhibition at 9.5 µg/mL [14]: 25 mm
zone of inhibition at 9.5 µg/mL [15]: 12 mm
movement toward the positive pole on electrophoresis [16]: 8.0 cm
zone of inhibition at 9.5 µg/mL [17]: 20 mm
inhibition of bacterial β-lactamases [18]: potent inhibitor of bacterial β-lactamases
zone of inhibition at 9.5 µg/mL [19]: 20 mm
zone of inhibition at 9.5 µg/mL [20]: 30 mm
zone of inhibition at 9.5 µg/mL [21]: 33 mm
zone of inhibition at 9.5 µg/mL [22]: 0 mm
antibacterial activity [23]: active against various gram-positive and gram-negative bacteria
stability under acidic conditions in aqueous solution [24]: unstable
zone of inhibition at 9.5 µg/mL [25]: 25 mm
zone of inhibition at 9.5 µg/mL [26]: 0 mm
